Laboratory results published in patent publication US20260294867A1, “METHODS FOR WEIGHT LOSS AND/OR REDUCING WEIGHT GAIN” (The Medical College of Wisconsin, Inc., priority 2023, published 2026).

Columns and labels:
Format in all cases: in vivo, C57BL/6J diet-induced obesity (DIO) male mice
[1] = Example 1: eating behavior, calories ingested per day; conditions: 2-way ANOVA of FIG. 4A; reutericyclin 100 μg/kg gavage, semaglutide 1 nmole/kg/day IP
Excerpt: (§1) FIG. 1 depicts the experimental approach for this Example. C57BL/6J diet-induced obesity (DIO) male mice were obtained at 12 weeks of age and housed singly in the MCW animal facility (www.jax.org/jax-mice-and-services/strain-data-sheet-pages/phenotype-information-380050). Mice were maintained on a 60% high fat diet (HFD) (Research Diets D12492) throughout the experiment. Mice were acclimated for 2 weeks prior to treatment with either semaglutide, reutericyclin, both drugs, or neither drug.
(§2) Mice were weight-matched into 4 groups (N=10 per group) and given either reutericyclin via gavage to achieve a dosage of 100 μg/kg or injected intraperitoneally (IP) with semaglutide to administer 1 nmole/kg/day. All mice experienced both gavage and injection with either drug or vehicle. Vehicle for reutericyclin and semaglute are identical: 3.0% DMSO in phosphate buffered saline (PBS).
(§3) The four groups were: the control group (HFD-PBS), which received vehicle only; the HFD-RTC group, which were administered reutericyclin at a dose of 100 μg/kg of body weight in PBS; the HFD-RTC-SemaG group, which received reutericyclin at a dose of 100 μg/kg of body weight and 1 nanomole of semaglutide/kg of body weight in vehicle; and the HFD-SemaG group, which were administered 1 nanomole of semaglutide/kg of body weight in vehicle. […]

[2] = Example 2: change in weight at day 46 after withdrawal of the semaglutide; conditions: 2-way ANOVA
Excerpt: (§4) FIG. 5 depicts the experimental approach for this Example, and additional details can be found in Tables 3 and 4 below. C57BL/6J diet-induced obesity (DIO) male mice were obtained at 12 weeks of age and housed singly in the MCW animal facility (https://www.jax.org/jax-mice-and-services/strain-data-sheet-pages/phenotype-information-380050). Mice were maintained on a 60% high fat diet (Research Diets D12492) throughout the experiment. Mice were acclimated for 2 weeks prior to treatment with either semaglutide, reutericyclin (RTC), both drugs, or neither drug.
as §2, with “(PBS). […]” for “(PBS).”
(§5) Mice were weighed daily to assess changes in body mass. […] Feeding efficiency is calculated by measuring the amount of weight gained by each mouse per gram of food consumed over a period of 5 days. Feeding efficiency shown here was calculated over days 21-26. […]

[3] = Example 1: fasted blood glucose; conditions: 2-way ANOVA of FIG. 4B; reutericyclin 100 μg/kg gavage, semaglutide 1 nmole/kg/day IP
Excerpt: as §1, §2, §3

[4] = Example 2: fasted blood glucose at day 27; conditions: 4 hours without food
Excerpt: as §4, §2
The four groups of mice were as follows: Group 1 (black) (HFD-PBS) received no drug but experienced gavage and injection; Group 2 (red) (HFD-RTC) received reutericyclin via gavage and experienced injection with vehicle only; Group 3 (green) (HFD-SemaG) received no drug via gavage and experienced injection with semaglutide; and Group 4 (purple) (HFD-RTC-SemaG) received reutericyclin via gavage and experienced injection with semaglutide.
Fasted blood glucose (4 hours without food) was performed with standard glucose test strips. Blood was obtained by a tail prick on day 27 of the experiment.
For each 2-way ANOVA statistical analyses, injection refers to semaglutide, gavage refers to reutericyclin, and interaction refers to the combination of injection and gavage.
FIG. 9 is a bar graph depicting the fasted blood glucose level at day 27 as described in Example 2.

[5] = Example 2: change in body mass on day 26; conditions: 2-way ANOVA
Excerpt: as §4
as §2, with “(PBS). […]” for “(PBS).”
as §5

[6] = Example 2: feeding efficiency; conditions: 2-way ANOVA, days 21-26
Excerpt: as §4
as §2, with “(PBS). […]” for “(PBS).”
as §5

SMILES: CCCCCCC/C=C/C(=O)N1C(=O)C(C(C)=O)=C(O)[C@H]1CC(C)C [reutericyclin, (5R)-1-(2-decenoyl)-2-hydroxy-3-acetyl-5-isobutyl-42-pyrroline-4-one]
- effect on eating (calories ingested per day) [1]: no noted effect
- Significant?, change in weight after withdrawal of the semaglutide ([2]; semaglutide stopped at day 26): Yes
- % of total variation, change in weight after withdrawal of the semaglutide ([2]; semaglutide stopped at day 26, gavage = reutericyclin, injection = semaglutide, interaction = combination): 5.422%
- effect on fasting blood glucose [3]: no noted effect
- Significant?, fasted blood glucose level ([4]; 2-way ANOVA): No
- % of total variation, fasted blood glucose level ([4]; 2-way ANOVA, gavage = reutericyclin, injection = semaglutide, interaction = combination): 9.241e−005%
- effect on blood glucose levels ([4]; tail prick): does not
- Significant?, change in body mass [5]: Yes
- % of total variation, change in body mass ([5]; gavage = reutericyclin 100 μg/kg, injection = semaglutide 1 nmole/kg/day IP, interaction = combination): 7.893%
- Significant?, feeding efficiency [6]: Yes
- % of total variation, feeding efficiency ([6]; weight gained per gram of food consumed, gavage = reutericyclin, injection = semaglutide, interaction = combination): 8.034%
